Experimental data from paper PMC8463504 (Journal of inorganic biochemistry, 2021).
Like-named read-outs stand apart in the source and are kept apart here.

Tests used:
[1] = biological target: T1, HbI (Phacoides pectinatus, UniProt P41260); details: cited from earlier work
[2] = biological target: T2, HbII (Phacoides pectinatus, UniProt P41261); details: read-out: Equilibrium dissociation constant (Kd), pH 7.5; cited from earlier work
T2 sequence (P41261 1-151): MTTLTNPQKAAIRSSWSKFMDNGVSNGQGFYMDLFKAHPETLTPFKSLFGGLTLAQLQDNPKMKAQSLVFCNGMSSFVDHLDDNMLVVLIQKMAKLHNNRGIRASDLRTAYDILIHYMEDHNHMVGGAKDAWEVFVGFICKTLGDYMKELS

[3] = cited from earlier work
[4] = biological target: T3, HbIII (Phacoides pectinatus, UniProt P41262); details: read-out: Equilibrium dissociation constant (Kd), pH 7.5; cited from earlier work
T3 sequence (P41262 1-153): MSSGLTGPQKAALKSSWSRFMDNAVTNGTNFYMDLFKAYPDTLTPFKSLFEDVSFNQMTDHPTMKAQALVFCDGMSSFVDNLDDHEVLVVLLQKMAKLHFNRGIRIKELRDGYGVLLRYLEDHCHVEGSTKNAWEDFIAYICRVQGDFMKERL

[5] = biological target: T1, HbI; details: read-out: Equilibrium dissociation constant (Kd), pH 7.5; cited from earlier work
[6] = biological target: HHMb; details: read-out: Equilibrium dissociation constant (Kd), pH 7.5; cited from earlier work
[7] = biological target: T2, HbII; details: read-out: Equilibrium dissociation constant (Kd), pH 7.5; cited from earlier work; remark: listed apart in the source
[8] = biological target: T3, HbIII; details: read-out: Equilibrium dissociation constant (Kd), pH 7.5; cited from earlier work; remark: listed apart in the source
[9] = biological target: T2, HbII; assay: biochemical
[10] = biological target: adult hemoglobin (A-Hb) (Homo sapiens, UniProt P68871+P69905); assay: biochemical; details: Measured fluoride binding dissociation constant (Kd)
Chain of adult hemoglobin (A-Hb) (P69905 2-142 limits assumed): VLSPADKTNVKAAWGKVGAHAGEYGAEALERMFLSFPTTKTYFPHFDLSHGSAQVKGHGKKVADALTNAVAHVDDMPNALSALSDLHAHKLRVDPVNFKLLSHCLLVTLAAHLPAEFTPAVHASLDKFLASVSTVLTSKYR
Chain of adult hemoglobin (A-Hb) (P68871 2-147 limits assumed): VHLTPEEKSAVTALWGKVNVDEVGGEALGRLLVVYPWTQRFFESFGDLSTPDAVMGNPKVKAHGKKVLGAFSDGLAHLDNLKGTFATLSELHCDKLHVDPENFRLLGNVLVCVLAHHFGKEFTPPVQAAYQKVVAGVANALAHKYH

[11] = biological target: T1, HbI; assay: biochemical; details: Measured fluoride binding dissociation constant (Kd), pH 5.0
[12] = biological target: T3, HbIII; assay: biochemical
[13] = biological target: horse heart myoglobin (Mb) (Equus caballus, UniProt P68082); assay: biochemical
Chain of horse heart myoglobin (Mb) (P68082 whole entry): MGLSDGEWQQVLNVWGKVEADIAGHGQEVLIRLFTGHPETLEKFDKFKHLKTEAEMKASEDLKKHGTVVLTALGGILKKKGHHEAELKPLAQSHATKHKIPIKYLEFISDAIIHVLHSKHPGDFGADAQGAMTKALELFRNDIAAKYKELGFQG

[14] = biological target: T1, HbI; details: pH 4 to 7 range
[15] = assay type: physicochemical; details: for % folded protein: below pH 4.4; for pKa of acid denaturation: sigmoidal-Boltzmann fit of % folded protein vs pH
[16] = tested on: His64; assay: other; details: ferric heme-bound fluoride complex; cited from earlier work
[17] = Equilibrium dissociation constant (Kd), pH 7.5
[18] = Measured fluoride binding dissociation constant (Kd), pH 5.0
[19] = Measured fluoride binding dissociation constant (Kd), pH 7.0

T1 sequence (P41260 whole entry): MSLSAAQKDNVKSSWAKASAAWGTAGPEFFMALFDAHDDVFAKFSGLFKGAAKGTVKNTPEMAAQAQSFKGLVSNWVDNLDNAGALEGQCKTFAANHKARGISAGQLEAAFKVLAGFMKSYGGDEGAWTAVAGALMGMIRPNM

S [H2S, Hydrogen sulfide]
Affinity of HbI for H2S relative to HbII and HbIII ([1]; HbI greater than HbII and HbIII): 4,000 times | Kd ([1]; read-out: Equilibrium dissociation constant (Kd), HbI, pH 7.5): 0.0034 µM | Kd [2]: 14.5 µM | pKa (H2S/HS^− equilibrium) [3]: 7.0 | Kd [4]: > 16 µM

O=O [O2, oxygen]
Kd [5]: ~0.4 µM | Kd [6]: 1.3 µM | Kd [7]: 0.28 µM | Kd [8]: 0.26 µM

F [fluoride, sodium fluoride]
Kd [9, 17]: 3700 µM | Kd [9, 18]: 330 ± 67 µM | Kd [9, 19]: 1000 ± 156 µM | Kd ([10]; pH 5.0): 9300 ± 5800 µM | Kd ([10]; pH 7.0): 33000 ± 4000 µM | Kd [11]: 100000 ± 61000 µM | Kd ([12]; Apparent Kd from non-linear fit, above pH 12): 4000 µM | Kd [12, 17]: 2900 µM | Kd [12, 18]: 500 ± 332 µM | Kd [12, 19]: 3100 ± 370 µM | Kd ([13]; Equilibrium dissociation constant (Kd), HHMb, pH 7.5): 41000 µM | Kd ([13]; Measured fluoride binding dissociation constant (Kd), Mb, pH 5.0): 3000 ± 820 µM | Kd ([13]; Measured fluoride binding dissociation constant (Kd), Mb, pH 7.0): 25000 ± 2800 µM | Fluoride affinity in HbI, lower than the other studied heme proteins [14]: about two orders of magnitude

A-Hb: Adult hemoglobin purchased from Sigma-Aldrich
% folded protein [15]: less than 50% | pKa of acid denaturation [15]: 4.4

Myoglobin (quoted literature values; species not stated in this article)
pKa [16]: 5.3–5.7

B1: Mb: horse heart (methods: horse skeletal muscle) myoglobin purchased from Sigma-Aldrich (protein, UniProt P68082 2-154, looked up)
Myoglobin: GLSDGEWQQVLNVWGKVEADIAGHGQEVLIRLFTGHPETLEKFDKFKHLKTEAEMKASEDLKKHGTVVLTALGGILKKKGHHEAELKPLAQSHATKHKIPIKYLEFISDAIIHVLHSKHPGDFGADAQGAMTKALELFRNDIAAKYKELGFQG
% folded protein [15]: less than 50% | pKa of acid denaturation [15]: 4.4
